{"source": "patent US8986696B2", "about": "“Trans-capsular administration of p38 map kinase inhibitors into orthopedic joints” (DePuy Mitek, Inc., priority 2007, dated 2015)", "key": {"[1]": {"system": "IL-1β-stimulated GAG release, bovine chondrocyte pellets / ARC tissues", "experiment": "chondrocyte pellet culture model: GAG degradation", "assay_type": "cell-based", "details": "for GAG Release: Pellet Assay", "from_the_text": "(§1) Calf articular cartilage was obtained from the knee joints of eight to twelve month old animals and was processed within twenty-four hours after sacrifice. After removal of muscle and ligament, the cartilage was kept moist using phosphate buffer solution (PBS) to prevent tissue dehydration, and was aseptically peeled off from subchondral bone with a scalpel, and the cartilage pieces were further minced into smaller pieces (˜0.3-0.5×˜0.2-0.5 cm cubes). […] Chondrocytes were then enzymatically isolated from the tissue by incubation for overnight at 37° C. with gentle agitation in 0.2% collagenase in Dulbecco's modified eagle media (DMEM). After removal of tissue debris by filtration through cell strainer and the residual collagenase by 3× wash in PBS, cells were finally resuspended at a density of 2.5×10^6 cells/ml in chondrocyte medium. A 1 ml aliquot of the cell suspension was dispensed into either a 15 ml Falcon centrifuge tube or a 96 deep-well plate and centrifuged at 2000×g for five minutes. The chondrocyte pellets were incubated at 37° C. in a humidified atmosphere of 5% CO2 for two to three weeks with a medium change every other day.\n(§2) As an alternative to using calf articular cartilage, a commercial Alginate Recovered Chondrocytes (ARC) system was also used (Articular Engineering, LLC (Northbrook, Ill.)). Use of the commercial system cut down on labor and time in producing chondrocyte pellet. This system produced cartilaginous tissue in vitro using bovine chondrocytes. The first step consisted of culturing chondrocytes in alginate under conditions optimal for the formation of a cell-associated matrix (CM). The second step allowed these cells with their CM, after recovery, to rapidly form and become integrated into a solid mass of cartilage on a porous insert within two weeks. This tissue is rich in cells surrounded by a cell-associated matrix that is degraded rapidly when the cells are exposed to IL-1. ARC tissues in 3 mm punches at delivery were first dispensed into a 96 deep-well plate, one punch per well, for compound treatment. The subsequent procedures were the same as those used for the chondrocyte pellets.\n(§3) Chondrocyte pellets were washed once with 1 ml of Chondrocyte Stimulation Medium and equilibrated in the same medium at room temperature for fifteen to thirty minutes. Compounds were dissolved in H2O, Ethanol or dimethyl sulfoxide (DMSO) (10^−2 M) according to suppliers' instructions and further diluted with Chondrocyte Stimulation Medium to the required concentrations. DMSO concentrations in the culture media should not exceed 1%; this concentration of DMSO has no effect on cartilage proteoglycan metabolism in response to cytokines.\n[…] At the end of the incubation, media and pellets were harvested and frozen for further analysis. Pellets were also fixed as needed in 4% (w/v) paraformaldehyde in PBS for histology analysis.\nGlycosaminoglycan (GAG) levels in the culture media were determined by measuring the amount of polyanionic material reacting with 1,9-dimethylmethylene blue (DME) as detected by absorbance at 525 nm, using shark chondroitin sulfate as a standard. The DME blue dye-binding solution was prepared by dissolving 16 mg of DME blue in a solution containing 0.304% glycine, 0.23% sodium chloride (NaCl), 9.5 mM hydrochloric acid (HCl), pH=3.0 with absorbance at 525 equal to 0.31. Proteoglycans and proteoglycan metabolites in chondrocyte pellet were released by digesting the pellet with 125 μg/ml of papain in 0.1 M PBS, pH 6.0, 5 mM cysteine, 5 mM ethylene-diamine-tetra-acetic acid disodium salt (Na2EDTA) at 50° C. for overnight. Results are reported as either micrograms of GAG per milliliter or percent of total GAG released into culture medium."}, "[2]": {"system": "IL-1β-stimulated NO production, bovine chondrocyte pellets / ARC tissues", "experiment": "chondrocyte pellet culture model: total nitrite/nitrate (NO)", "assay_type": "cell-based", "details": "Pellet Assay", "from_the_text": "as §1, §2, §3\n(§4) The pellets were first treated with compounds at desired concentrations at 37° C. for one hour and then incubated for three to five days in the absence or presence of 10 ng/ml of IL-1β. At the end of the incubation, media and pellets were harvested and frozen for further analysis. Pellets were also fixed as needed in 4% (w/v) paraformaldehyde in PBS for histology analysis.\nNitrate/Nitrite levels were measured using the Griess reaction (Green L. C. et al., “Analysis of Nitrate, Nitrite, and [15N]nitrate in Biological Fluids,” Anal. Biochem. 126: 131-138 (1982)) with aNitrate/Nitrite Colorimetric Assay Kit (Cayman Chemicals), the contents of which are incorporated herein by reference. The assay involved a simple two-step process. The first step involved conversion of nitrate in 50 μl of culture medium to nitrite utilizing nitrate reductase in a reaction volume of 100 μl at room temperature for two hours. The second step involved the addition of 50 μl of both Griess Reagent 1 and 2, which converted nitrite into a deep purple azo compound in ten minutes. Photometric measurement of the absorbance at 540 or 550 nm due to this azo chromophore accurately determined nitrite concentration. […]"}, "[3]": {"system": "injured cartilage explants, GAG release", "experiment": "drop tower design model: GAG release", "assay_type": "cell-based, bovine", "from_the_text": "(§5) The device comprises a vertical rail that guides a sliding weight from 0.1 kg to 3 kg directly onto a force transducer which is situated at the bottom of the device. A sphere-shaped 2 mm indenter resting on a specimen is located at the bottom of the vertical rail. The indenter is held by a stop screw. The specimen is rigidly attached to a tissue holder underneath the indenter, to avoid side movements, the specimen is rigidly attached to the tissue holder. In this manner, the force transducer transduces a force indirectly onto the specimen. Adjusting the weight of a mass and height from which the mass drops varies the magnitude of the intended impact. For example, a weight mass (e.g., […]) held by a weight holder can be released from a height of e.g., 36 cm and dropped onto the force transducer.\nSamples for compound evaluation were tested using either of two different methods to induce inflammatory conditions. One method utilized media conditioned from peripheral blood mononuclear cells (PBMCs) stimulated with LPS (“+LPS”) or non-inflammatory media without LPS (“−LPS”). Another method utilized the absence or presence of a cocktail of cytokines.\nIn the first method, bovine or human PBMCs were freshly prepared using Ficoll gradient by Lampire Biological Laboratories, Inc. PBMCs in RPMI w/10% FCS at delivery were spun down at 1500 rpm for twenty minutes and the cell pellet was washed twice with 1×PBS to wash off the residual Ficoll. The cells were then resuspended at a density of 1×10^6/ml in RPMI supplemented with 10% FCS, 1× Antibiotics-Antimycotics. The suspension was divided into two aliquots. One aliquot was stimulated with 10 μg/ml of LPS and the other was not stimulated. Both aliquots were then incubated at 37° C., 5% CO2 for twenty-four to seventy-two hours. The conditioned media with or without LPS stimulation are collected, aliquoted, and stored in −80° C. for a maximum of three months. Each conditioned medium was assessed for levels of pro-inflammatory cytokines to ensure their secretion from PBMC. A representative cytokine, IL-6, was assayed by ELISA using a Human IL-6 Quantikine kit and it was shown that the LPS-stimulated medium had at least 10 ng/ml of IL-6, while IL-6 was undetectable in the unstimulated medium.\nIn the second method, the explants were cultured at 37° C., 5% CO2 either in stimulated or non-stimulated conditioned medium as described above or in defined medium containing DMEM supplemented with 1% FCS, 1× insulin-transferrin-sodium selenite media supplement and Antibiotics-Antimycotics in the presence or absence of a cocktail of cytokines containing 10 ng/ml of IL-1β, 100 ng/ml of TNFα and 5 ng/ml of IFN-γ. The compounds were solubilized in H2O, Ethanol or DMSO (10^−2 M) according to suppliers' instructions and further diluted with either conditioned medium stimulated with or without LPS to the required concentrations. DMSO concentrations in the culture media never exceeded 1%. This concentration of DMSO has no effect on cartilage proteoglycan metabolism in response to cytokines. The injured and noninjured cartilage explants were treated with compound-containing medium for three to five days. The specimens were first treated with compounds at desired concentrations at 37° C. for one hour and then incubated for three to five days in the absence or presence of the cocktail of cytokines. At the end of the incubation, media and cartilage samples were harvested and frozen for further analysis.\nGlycosaminoglycan (GAG) levels in the culture media or cartilage were determined by measuring the amount of polyanionic material reacting with 1,9-dimethylmethylene blue (DME) as detected by absorbance at 525 nm, using shark chondroitin sulfate as a standard. The DME blue dye-binding solution was prepared by dissolving 16 mg of DME blue in a solution containing 0.304% glycine, 0.23% NaCl, 9.5 mM HCl, pH=3.0 with A525 equaling 0.31. […]"}, "[4]": {"system": "IL-1β-stimulated PGE2 synthesis, bovine chondrocyte pellets / ARC tissues", "experiment": "chondrocyte pellet culture model: PGE2", "assay_type": "cell-based", "details": "for PGE2 Inhibition: Pellet Assay", "from_the_text": "as §1, §2, §3, §4\nProstaglandin E2 (PGE2) was measured with a STAT-Prostaglandin E2 EIA ELISA kit (Cayman Biochemicals). This assay is based on the competition between PGE2 from 50 μl samples and a PGE2-alkaline phosphatase conjugate for a limited amount of PGE2 monoclonal antibody in a reaction volume of 150 μl at room temperature for one hour. The antibody-PGE2 complex bound to a goat polyclonal anti-mouse IgG that had been previously attached to the well. After washing to remove any unbound reagents, para-nitrophenyl phosphate (pNPP) was added to the well. The product of this enzymatic reaction absorbs strongly at 412 nm. Because of the large range in response to IL-1β and other cytokines, PGE2 values were converted to log scale prior to doing t-tests."}, "[5]": {"system": "PG release, arthritic joint tissues", "details": "10^−5 moles/liter or 10^−7 moles/liter; cited from earlier work"}, "[6]": {"system": "injured cartilage explants", "assay_type": "cell-based", "from_the_text": "as §5"}, "[7]": {"system": "chondrocytes", "assay_type": "cell-based", "from_the_text": "as §1, §2, §3, §4\nThe LDH activity was determined colorimetrically in an enzymatic test based on the conversion of lactic acid to pyruvate in the presence of chromagenic substrate tetrazolium salt INT that was reduced to formazan."}}}
{"molecule": "Cc1ccc(C(=O)c2ccc(CC(=O)O)n2C)cc1", "note": "[Tolmetin, reference compound]", "values": [{"measurement": "GAG Release", "setting": "[1]", "value": "No effect"}, {"measurement": "NO Inhibition", "setting": "[2]", "value": "No effect"}]}
{"molecule": "CN1C(C(=O)Nc2ccccn2)=C(O)c2ccccc2S1(=O)=O", "note": "[Piroxicam, reference compound]", "values": [{"measurement": "GAG Release", "setting": "[1]", "value": "No effect"}, {"measurement": "GAG, inhibition of degradation/release", "setting": "[3]; injured cartilage explants, inflammatory conditions", "value": "No effect"}]}
{"molecule": "CC1(C)O[C@@H]2[C@@H](CO[C@@]3(COS(N)(=O)=O)OC(C)(C)O[C@@H]23)O1", "note": "[Topramax, reference compound]", "values": [{"measurement": "GAG Release", "setting": "[1]", "value": "No effect"}, {"measurement": "NO Inhibition", "setting": "[2]", "value": "No effect"}, {"measurement": "PGE2 Inhibition", "setting": "[4]", "value": "No effect"}]}
{"molecule": "CC(C(=O)O)c1ccc(C(=O)c2ccccc2)s1", "note": "(stereo not shown) [Tiaprofenic Acid, reference compound]", "values": [{"measurement": "GAG Release", "setting": "[1]", "value": "No effect"}]}
{"molecule": "COc1ccc2c(c1)c(CC(=O)O)c(C)n2C(=O)c1ccc(Cl)cc1", "note": "[indomethacin]", "values": [{"measurement": "PG release from arthritic joint tissues", "setting": "[5]", "value": "significantly inhibited"}]}
{"molecule": "O=C(O)c1cc(O)c2c(c1)C(=O)c1cccc(O)c1C2=O", "note": "[Rhein, reference compound]", "values": [{"measurement": "lowest concentration inhibiting proteoglycan degradation", "setting": "[1]; 10 ng/ml IL-1β, five days", "value": "≤ 0.035", "unit": "µM"}, {"measurement": "PGE2 synthesis", "setting": "[4]; diacerein at 5.4 μM, rhein at 0.35 μM, 10 ng/ml IL-1β", "value": "no effect"}, {"measurement": "cytotoxicity (LDH, words)", "setting": "[6]", "value": "tolerant"}]}
{"molecule": "CO[C@H]1C[C@@H]2CC[C@@H](C)[C@@](O)(O2)C(=O)C(=O)N2CCCC[C@H]2C(=O)O[C@H]([C@H](C)C[C@@H]2CC[C@@H](O)[C@H](OC)C2)CC(=O)[C@H](C)/C=C(\\C)[C@@H](O)[C@@H](OC)C(=O)[C@H](C)C[C@H](C)/C=C/C=C/C=C/1C", "note": "[Rapamycin, reference compound]", "values": [{"measurement": "cytotoxicity to chondrocytes (LDH, words)", "setting": "[7]", "value": "little toxicity"}, {"measurement": "inhibition at 0.01 µM", "setting": "[3]; Bos taurus, at 0.01 μM", "value": 84, "unit": "%"}, {"measurement": "cytotoxicity (LDH, words)", "setting": "[6]", "value": "little cytotoxicity"}]}
{"molecule": "O=C(O)Cc1ccccc1Nc1c(Cl)cccc1Cl", "note": "[diclofenac]", "values": [{"measurement": "PG release from arthritic joint tissues", "setting": "[5]", "value": "significantly inhibited"}]}
{"molecule": "Madecassoside", "values": [{"measurement": "GAG Release", "setting": "[1]", "value": "No effect"}, {"measurement": "NO Inhibition", "setting": "[2]", "value": "No effect"}, {"measurement": "PGE2 Inhibition", "setting": "[4]", "value": "No effect"}]}
